Assay results: patent publication EP2329817A1, “Retinoic acid receptor antagonists, miR-10a inhibitors and inhibitors of HOXB1 or HOXB3 repressors for treating pancreatic cancer” (Ernst-Moritz-Arndt-Universität Greifswald, priority 2009, dated 2011)
Where “and” joins values, the source holds several entries; their conditions need not be identical. Equal entries are not always repeated.

Tests used:
PaTu-T cells [1] = assay: Cell survival and cell cycle distribution by propidium iodine staining (FACS); format: cell-based, human
Source text: Targeting endogenous miR-10a with Morpholinos rendered PaTu-T-cells non-invasive and prevented metastatic behaviour in zebrafish embryos, whereas a control Morpholino had no such effect (Fig.4 B, Table1 and Supplemental Table 1). […] (analysed by propidium iodine (PI) staining, data not shown).
We used the selective RARα antagonist Ro-41-5253; to analyze its anti-migratory activity in an in vitro migration assay ("scratch assay") and in the zebrafish xenotransplantation model, respectively. […] Similar results were obtained when PaTu-T cells were treated with RAR -specific siRNAs (Supplemental Table 1 and Supplemental Fig. 1).
Supplemental Figure 3: Cell cycle analysis of RARα siRNA or Ro-415253 treated PaTu-T cells. Cells were treated with either DMSO control (A), RARα siRNA (B) or 200 nM Ro-415253 (C) and fixed after 24h with 70% EtOH. Following propidium iodine (PI) staining the cells were analysed by a LSR2 FACS sorter (Becton Dickinson). […] Gate P2 indicates cells in G0/1 phase, gate 3 represents cells in S phase and gate 4 represents Cells in M/G2 phase.

PaTu-T cells [2] = assay: Zebrafish embryo xenotransplantation: invasion and metastatic behaviour of pretreated PaTu-T cells; format: in vivo, human
Description: (§1) Zebrafish (Danio rerio) (Tuebingen line, AIB strain (Albinos) and Tg (fli1:eGFP) were handled in compliance with local animal care regulations and standard protocols of the Netherlands and Germany. Fish were kept at 28°C in aquaria with day/night light cycles (10 h dark versus 14 h light periods). The developing embryos were kept in an incubator at constant temperatures.
(§2) The selective RARα antagonist Ro-41-5253 was purchased from Biomol International, dissolved in DMSO and cells were treated overnight prior to injections at a final concentration of 200 nM (50% inhibition at 60nM)^14,15. Retinoic acid (ATRA, Sigma) was added to cells ON at a final concentration of 1 µM.
(§3) Cells were stained with CM-Dil (red fluorescence) at a 1:1000 dilution according to the manufacturers protocol (Vybrant, Invitrogen). Cells were suspended in 67% DPBS for injection into embryos. 2dpf zebrafish embryos were dechorionated and tranquilized with tricaine (Sigma). An injection needle (15µm diameter) with a manual injector (Eppendorf; Celltram Vario) was used to inject ∼200 cells into the yolk sac of 2dpf zebrafish embryos. On average 80 embryos were injected for each treatment and embryos with detectable cell scatter 2 h after the transfer (and therefore presumably due to the transfer procedure) were excluded from further analysis. Presence of cells was checked after 2 h incubation at 31°C and embryos were subsequently kept at 35°C. We defined metastasis based on the number of fluorescent cells that were detected outside the yolk sac 2 days after the transfer. Presence of 5 or more cells was considered "metastasised" and percentages of metastasised fish in each experiment were counted. The occurence of micro-metastasis is indicated by cell clusters of ≥4 cells presumably originating from cell division. PaTu-S cells and ASPC1 cells were transfected ON with indicated concentrations of miR-10a siRNA in the presence of ICA-Fectin TM442 (Eurogentec, Belgium). Whole cell lysates were prepared 36h post-transfection and 40 µg of total lysates were separated on 7.5% PAA-gels and blotted with anti E-cadherin, α-catenin, β-catenin (all mAbs, Transduction Labs) and actin antibodies (mAb Sigma-Aldrich, Germany).
(§4) Morpholino antisense oligonucleotides were obtained from Gene Tools, LLC (OR, USA) and used as previously described^19. The miR-10a antisense Morpholino sequence is: […]. Standard control Morpholino was […]. Both miR-10a and control Morpholinos were fluorescein labeled. The siRNAs for human HOXB1, human HOXB3 and human RARα were purchased from Santa Cruz Biotechnology (HOXB1: sc-38686, HOXB3: sc-38690 and RARα: sc-29465). EndoPorter (Gene Tools, LLC) was used to deliver Morpholinos and siRNAs into cells and efficiencies for Morpholinos were checked by fluorescence microscopy to be >98%. For the miR-10a siRNA, the sense strand corresponds to […]. The sequence of control siRNA (miR-196a) was […] with the corresponding antisense sequence). 30 µl of each siRNA oligo (50 µM) were annealed by gradually cooling from 98°C to 20°C in a volume of 75 µl annealing buffer (50 mM Tris, pH 7.8, 100 mM NaCl RNAse free). The effect of miR-10a Morpholinos on miR-10a function was tested with a sensor construct: pCS2+ EGFP 4x miR-10 AS containing 4 copies of a miR-10a antisense sequence.

PaTu-S cells = assay: Zebrafish embryo xenotransplantation: invasion and metastatic behaviour of pretreated PaTu-S cells; format: in vivo, human
Description: as §1, §2, §3, §4

[3] = Experiment 1, number of embryos (equals the Day 1 total)
[4] = Experiment 1, Day 1, number of embryos
[5] = Experiment 1, Day 2, number of embryos
[6] = Experiment 1, Day 3, number of embryos
[7] = Experiment 1, summary line, percentage in brackets (of embryos alive)
[8] = Experiment 2, number of embryos (equals the Day 1 total)
[9] = Experiment 2, Day 1, number of embryos
[10] = Experiment 2, Day 2, number of embryos
[11] = Experiment 2, Day 3, number of embryos
[12] = Experiment 2, summary line, percentage in brackets (of embryos alive)

## CCCCCCCOc1cc2c(cc1/C(C)=C/c1ccc(C(=O)O)cc1)C(C)(C)CCS2(=O)=O [Ro-41-5253, Benzoic acid, 4-(2-(7-(heptyloxy)-3,4-dihydro-4,4-dimethyl-2H-1-benzothiopyran-6-yl)-1-propenyl)-, S,S-dioxide, (E)]
PaTu-T cells [1]; 24h, Ro-415253 at 200 nM, PI staining, FACS
  cell cycle distribution: No differences
PaTu-T cells [1]; propidium iodine (PI) staining
  general cell survival: no adverse affects
PaTu-T cells [2]; [3]
  total >5: 1
PaTu-T cells [2]; [4]
  Migration 5 to 20: 1
  Migration <5: 0
  Migration >20: 0
  total >5: 1
PaTu-T cells [2]; [5]
  Migration 5 to 20: 0
  Migration <5: 0
  Migration >20: 0
  total >5: 0
PaTu-T cells [2]; [6]
  Migration 5 to 20: 0
  Migration <5: 0
  Migration >20: 0
  total >5: 0
PaTu-T cells [2]; [7]
  total >5: 1.4%
PaTu-T cells [2]; [8]
  total >5: 2
PaTu-T cells [2]; [9]
  Migration 5 to 20: 2
  Migration <5: 0
  Migration >20: 0
  total >5: 2
PaTu-T cells [2]; [10]
  Migration 5 to 20: 2
  Migration <5: 0
  Migration >20: 0
  total >5: 2
PaTu-T cells [2]; [11]
  Migration 5 to 20: 0
  Migration <5: 0
  Migration >20: 0
  total >5: 0
PaTu-T cells [2]; [12]
  total >5: 2.9%
PaTu-T cells [2]; Table 1, pretreated PaTu-T cells transplanted into zebrafish embryos, average of 2-4 experiments
  Average % (observed metastasised embryos): 2.2%
PaTu-T cells [2]; average of experiments, PaTu-T
  %migration, Average: 2.2%
PaTu-T cells [2]; single experiments, PaTu-T, listed as RARαinhibitor
  %migration: 1.4% and 2.9%

## CC1=C(/C=C/C(C)=C/C=C/C(C)=C/C(=O)O)C(C)(C)CCC1 [RA, all trans retinoic acid]
PaTu-S cells; [3]
  total >5: 14
PaTu-S cells; [4]
  Migration 5 to 20: 11
  Migration <5: 1
  Migration >20: 3
  total >5: 14
PaTu-S cells; [5]
  Migration 5 to 20: 10
  Migration <5: 0
  Migration >20: 4
  total >5: 14
PaTu-S cells; [6]
  Migration 5 to 20: 19
  Migration <5: 0
  Migration >20: 3
  total >5: 12
PaTu-S cells; [7]
  total >5: 24.1%
PaTu-S cells; [8]
  total >5: 20
PaTu-S cells; [9]
  Migration 5 to 20: 15
  Migration <5: 1
  Migration >20: 5
  total >5: 20
PaTu-S cells; [10]
  Migration 5 to 20: 13
  Migration <5: 1
  Migration >20: 4
  total >5: 17
PaTu-S cells; [11]
  Migration 5 to 20: 12
  Migration <5: 1
  Migration >20: 5
  total >5: 17
PaTu-S cells; [12]
  total >5: 31.2%
PaTu-S cells; Table 1, pretreated PaTu-S cells transplanted into zebrafish embryos, average of 2-4 experiments
  Average % (observed metastasised embryos): 27.7%
PaTu-S cells; average of experiments, PaTu-S
  %migration, Average: 27.7%
PaTu-S cells; single experiments, PaTu-S
  %migration: 24.1% and 31.2%
